Columns and labels:
[1] = Intrinsic clearance in rat hepatic microsomes, predicted hepatic clearance; assay type: in vitro ADME; settings: predicted hepatic clearance from rat hepatic microsomes
Protocol: (§1) A similar approach was used to determine the degree of brain homogenate binding, which employed the same methodology and procedure with the following modifications: 1) a final compound concentration of 1 μM was used, 2) naïve rat brains were homogenized in DPBS (1:3 composition of brain: DPBS, w/w) using a Mini-Bead Beater™ machine in order to obtain brain homogenate, which was then treated in the same manner as the plasma samples in the previously described plasma protein binding assay. […]
(§2) same manner as the plasma samples in the previously described plasma protein binding assay. Fraction unbound for both plasma and brain samples was determined using Equation 4.
(§3) Equation 4 Determination of fraction unbound in plasma.
(§4) The diluted fraction unbound (fu2) in brain was calculated in the same manner by using brain homogenate rather than plasma. Undiluted fraction unbound for the brain was calculated using Equation 5 […]
(§5) Equation 5 Determination of fraction unbound in brain. […]
(§6) Human or rat hepatic microsomes (0.5 mg/mL) and 1 µM test compound were incubated in 100 mM potassium phosphate pH 7.4 buffer with 3 mM MgCl 2 at 37 °C with constant shaking. […] The in vitro half-life (1/2, min, Eq. 1), intrinsic clearance (CL int, mL/min/kg, Eq. 2), and subsequent predicted hepatic clearance (CLhep, mL/min/kg, Eq. 3) was determined employing the following equations: […]

[2] = Intrinsic clearance in human hepatic microsomes, predicted hepatic clearance; assay type: in vitro ADME; settings: predicted hepatic clearance from human hepatic microsomes
Protocol: as §1, §2, §3, §4, §5, §6

Rat CLHEP [1] [mL/min/kg]	Human CLHEP [2] [mL/min/kg]	SMILES
32.8	6.7	Cn1cc(-c2ccc(Cc3cc(C(=O)N[C@H]4CCOC[C@@H]4O)nn3C3CCCC3)cc2)cn1 [17g]
49.5	14.3	Cn1cc(-c2ccc(Cc3cc(C(=O)N[C@H]4CCCC[C@@H]4O)nn3C3CCCC3)cc2)cn1 [17k]

— PMC12257413, “Discovery of a Novel sp^3‑Rich M1 Positive Allosteric Modulators (PAMs) Chemotype via Scaffold Hopping” (ACS Medicinal Chemistry Letters, 2025)
